Counter-ions that a name gives are not always drawn.

The assay deals with T1, AKT1 (Homo sapiens, UniProt P31749).
T1 construct: Full-length non-phosphorylated AKT1 is diluted in assay buffer
T1 sequence (P31749 whole entry): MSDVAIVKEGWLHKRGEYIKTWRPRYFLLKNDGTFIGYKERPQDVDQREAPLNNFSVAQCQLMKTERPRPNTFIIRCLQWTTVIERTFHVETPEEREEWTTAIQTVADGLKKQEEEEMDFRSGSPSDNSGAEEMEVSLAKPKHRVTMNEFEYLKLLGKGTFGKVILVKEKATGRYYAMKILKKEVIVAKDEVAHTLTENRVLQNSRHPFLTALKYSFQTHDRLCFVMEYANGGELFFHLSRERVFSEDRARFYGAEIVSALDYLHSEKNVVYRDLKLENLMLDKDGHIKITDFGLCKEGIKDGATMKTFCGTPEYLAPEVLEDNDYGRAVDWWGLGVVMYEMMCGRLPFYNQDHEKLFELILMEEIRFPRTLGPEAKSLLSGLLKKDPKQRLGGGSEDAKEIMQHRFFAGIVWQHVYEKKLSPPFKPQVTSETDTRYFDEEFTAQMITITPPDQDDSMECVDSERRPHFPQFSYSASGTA
In words: AKT1 Alpha Screen Assay. The assay is classed as biochemical. The conditions noted are these: full-length non-phosphorylated AKT1 8 nM, activated by PDK1 and MAPKAPK2, lipid vesicles, 50 μM ATP; biotinylated crosstide substrate; AlphaScreen. As to the method:
AKT1 activity is assayed using the GSK3-derived biotinylated peptide substrate, crosstide (biotin-[…]), and AlphaScreen™ (Amplified Luminescent Proximity Homogeneous Assay) technology. AKT1 activation is achieved by the addition of the activating kinases PDK1 and MAPKAPK2, lipid vesicles, and ATP. The extent of peptide phosphorylation is determined using a phospho-AKT substrate antibody and acceptor beads conjugated to Protein A and donor beads conjugated to streptavidin that will bind to the biotin on the peptide. Excitation of the donor beads converts ambient oxygen to excited singlet oxygen which, when in close proximity to acceptor beads, reacts with acceptor beads resulting in signal amplification.
Test inhibitors and controls are prepared in 10% DMSO at 10-fold the desired final concentration, and added to each well of a reaction plate (Corning 96-well half-area solid white nonbinding surface plate) in a volume of 2.5 μL. Full-length non-phosphorylated AKT1 is diluted in assay buffer (50 mM Tris, pH 8.0, 0.02 mg/mL BSA, 10 mM MgCl2, 1 mM EGTA, 10% glycerol, 0.2 mM Na3VO4, 1 mM DTT, 0.1 mM β-glycerophosphate, and 0.2 mM NaF) and added to each well in a volume of 17.5 μL for a final concentration in the 25 μL reaction of 8 nM (Akt1). […] Assay plates are incubated for 90 minutes at room temperature in the dark, and the plates are read on a Perkin Elmer Envision Multilabel plate reader (excitation wavelength: […], emission wavelength: 570 nm).
Reaction conditions: 2.5 μL 10× Akt inhibitor in 10% DMSO; 17.5 μL non-phosphorylated Akt or buffer for blank; 20 minute pre-incubation at room temperature; 5 μL Reaction Mix (5×ATP, 5×substrate, 5×PDK1, 5×MK2, and 5× lipid vesicle mixture); 30 minute incubation at room temperature; 10 μL Detection Buffer; 90 minute incubation at room temperature and Detection (excitation: 640 nm, emission: 570 nm).
In general terms: Alpha assays give light when donor and acceptor beads are brought close together.
One may read the IC50 as the point on the concentration scale where inhibition reaches its midpoint. High values mean weaker potency in that assay, low ones greater potency in that assay. As for `NC1(c2ccc(-c3nc4n(c3-c3ccccc3)-c3cccnc3Nc3ccccc3-4)cc2)CCC1` [Example 144], the 50% inhibitory concentration (IC50) came out at 0.184 µM.

`COc1ncc(-c2nc3n(c2-c2ccc(C4(N)CCC4)cc2)-c2cccnc2Nc2ccccc2-3)s1` [Example 68] came in with a half-maximal inhibitory concentration (IC50) of 0.027 µM. This IC50 is about 6.8-fold lower than that of the molecule before.

In the case of `NC1(c2ccc(-c3c(-c4ccoc4)nc4n3-c3cccnc3Nc3ccccc3-4)cc2)CCC1` [Example 9], the 50% inhibitory concentration (IC50) was 0.028 µM.

As to `Nc1ncc(-c2nc3n(c2-c2ccc(C4(N)CCC4)cc2)-c2cccnc2Nc2ccccc2-3)cn1` [Example 31, trihydrochloride], the IC50 came out at 0.003 µM.

For `NC1(c2ccc(-c3c(-c4ncco4)nc4n3-c3cccnc3Nc3ccccc3-4)cc2)CCC1` [Example 151], half-maximal inhibition (IC50) was put at 0.004 µM.

Molecule `C[C@H](N)c1ccc(-c2c(-c3ccccc3)nc3n2-c2cccnc2Nc2ccccc2-3)cc1` [Example 147] displayed a 50% inhibitory concentration (IC50) of 0.046 µM.

`NC1(c2ccc(-c3c(-c4ccccc4F)nc4n3-c3cccnc3Nc3ccccc3-4)cc2)CCC1` [Example 136] had an IC50 of 0.084 µM.

With `NC1(c2ccc(-c3c(-c4ccccc4F)nc4n3-c3cccnc3Nc3ccccc3-4)cc2F)CCC1` [Example 137], the 50% inhibitory concentration (IC50) came out at 0.168 µM.

Molecule `NC1(c2ccc(-c3c(-c4ccc(F)cc4)nc4n3-c3cccnc3Nc3ccccc3-4)cc2F)CCC1` [Example 135] came in with an IC50 of 0.119 µM.

In the case of `NC1(c2ccc(-c3c(-c4ccc(-c5ccccc5)cc4)nc4n3-c3cccnc3Nc3ccccc3-4)cc2)CCC1` [Example 138], the IC50 worked out at 0.053 µM.

As to `Cn1nccc1-c1nc2n(c1-c1ccc(C3(N)CCC3)cc1)-c1cccnc1Nc1ccccc1-2` [Example 70], the IC50 was found to be 0.343 µM.

Turning to `NC1(c2ccc(-c3c(CC(=O)Nc4ccccc4)nc4n3-c3cccnc3Nc3ccccc3-4)cc2)CCC1` [Example 145], the half-maximal inhibitory concentration (IC50) was over 1 µM.

`C[C@@H](N)c1ccc(-c2c(-c3ccccc3)nc3n2-c2cccnc2Nc2ccccc2-3)cc1` [Example 148] came in with a half-maximal inhibitory concentration (IC50) of 0.066 µM.

As for `NC1(c2ccc(-c3c(-c4nccs4)nc4n3-c3cccnc3Nc3ccccc3-4)cc2)CCC1` [Example 150], half-maximal inhibition (IC50) required 0.003 µM.

As for `NC1(c2ccc(-c3c(-c4cccc(F)c4)nc4n3-c3cccnc3Nc3ccccc3-4)cc2)CCC1` [Example 139], half-maximal inhibition (IC50) required 0.074 µM.

`NCc1ccc(-c2c(-c3ccccc3)nc3n2-c2cccnc2Nc2ccccc2-3)cc1` [Example 143] showed an IC50 of 0.122 µM.

Molecule `NC1(c2ccc(-c3c(-c4cnccn4)nc4n3-c3cccnc3Nc3ccccc3-4)cc2)CCC1` [Example 15] yielded a 50% inhibitory concentration (IC50) of 0.014 µM. This IC50 lies about 8.7-fold lower than the previous one.

For the molecule `NCc1ccc(-c2nc3n(c2-c2ccc(C4(N)CCC4)cc2)-c2cccnc2Nc2ccccc2-3)cc1` [Example 149], the IC50 is 0.018 µM.

`Cc1cccc(NC(=O)Cc2nc3n(c2-c2ccc(C4(N)CCC4)cc2)-c2cccnc2Nc2ccccc2-3)n1` [Example 146] yielded an IC50 of over 1 µM.

Molecule `Cc1ccccc1-c1nc2n(c1-c1ccc(C3(N)CCC3)cc1)-c1cccnc1Nc1ccccc1-2` [Example 141] showed a concentration for half-maximal inhibition (IC50) of 0.451 µM.

Regarding `NC1(c2ccc(-c3c(-c4ccc(F)cc4)nc4n3-c3cccnc3Nc3ccccc3-4)cc2)CCC1` [Example 134], the 50% inhibitory concentration (IC50) came out at 0.053 µM.

`COc1ccc(-c2nc3n(c2-c2ccc(C4(N)CCC4)c(F)c2)-c2cccnc2Nc2ccccc2-3)cc1` [Example 127] gave an IC50 of 0.083 µM.

`NC1(c2ccc(-c3c(-c4cccc(F)c4)nc4n3-c3cccnc3Nc3ccccc3-4)cc2F)CCC1` [Example 140] returned a 50% inhibitory concentration (IC50) of 0.295 µM.

The molecule `NC1(c2ccc(-c3c(-c4cccs4)nc4n3-c3cccnc3Nc3ccccc3-4)cc2)CCC1` [Example 83] came in with an IC50 of 0.073 µM.

As to `Cc1ccccc1-c1nc2n(c1-c1ccc(C3(N)CCC3)c(F)c1)-c1cccnc1Nc1ccccc1-2` [Example 142], the half-maximal inhibitory concentration (IC50) came out at 0.485 µM.

The values are drawn from patent US8569331B2 (ArQule, Inc., priority 2010, dated 2013).
